Experimental data published in ChEMBL document CHEMBL4257573, “Synthesis, modification, and cytotoxic evaluation of 2,3-secotriterpenic β-ketoesters” (Bioorg Med Chem Lett, 2018).
The source made the active and inactive calls. The rule behind the calls is not given here.

Key:
HCT-116 [1] = experiment: Induction of apoptosis in human HCT116 cells assessed as late apoptotic cells at 2 uM after 18 hrs by Annexin V/7-AAD staining based flow cytometric analysis (reference value: 2.12%); format: functional
[2] = Selectivity index, ratio of IC50 for HEK293 cells to IC50 for human Hep2 cells; format: toxicity; conditions: HEK293 cells versus Hep2 cells, read-out: Ratio IC50
HEK293 = experiment: Cytotoxicity against HEK293 cells assessed as reduction in cell viability after 72 hrs by MTT assay; format: cell-based; conditions: Homo sapiens, HEK293, 72 h
HCT-116 [3] = experiment: Cytotoxicity against human HCT116 cells assessed as reduction in cell viability after 72 hrs by MTT assay; format: functional, cell-based
MCF7 = experiment: Cytotoxicity against human MCF7 cells assessed as reduction in cell viability after 72 hrs by MTT assay; format: functional, cell-based; conditions: MCF7, 72 h
[4] = Cytotoxicity against human MS cells assessed as reduction in cell viability after 72 hrs by MTT assay; format: functional, cell-based
HCT-116 [5] = experiment: Cell cycle arrest in human HCT116 cells assessed as accumulation at sub-G0 phase at 2 uM after 18 hrs by DAPI staining-based flow cytometric analysis (RVB = 8.55%); format: functional
A549 = experiment: Cytotoxicity against human A549 cells assessed as reduction in cell viability after 72 hrs by MTT assay; format: functional, cell-based; conditions: A549, 72 h
HCT-116 [6] = experiment: Cell cycle arrest in human HCT116 cells assessed as accumulation at G2/M phase at 2 uM after 18 hrs by DAPI staining-based flow cytometric analysis (RVB = 17.25%); format: functional
HCT-116 [7] = experiment: Cell cycle arrest in human HCT116 cells assessed as accumulation at G0/G1 phase at 2 uM after 18 hrs by DAPI staining-based flow cytometric analysis (RVB = 47.72%); format: functional
RD = experiment: Cytotoxicity against human RD cells assessed as reduction in cell viability after 72 hrs by MTT assay; format: functional, cell-based
[8] = Selectivity index, ratio of IC50 for HEK293 cells to IC50 for human MCF7 cells; format: toxicity; conditions: HEK293 cells versus MCF7 cells, read-out: Ratio IC50
HCT-116 [9] = experiment: Antimigratory activity in human HCT116 cells at 2 uM after 96 hrs by wound healing assay; format: functional, cell-based
HCT-116 [10] = experiment: Induction of apoptosis in human HCT116 cells assessed as early apoptotic cells at 2 uM after 18 hrs by Annexin V/7-AAD staining based flow cytometric analysis (reference value: 5.84%); format: functional
[11] = Selectivity index, ratio of IC50 for HEK293 cells to IC50 for human MS cells; format: toxicity; conditions: HEK293 cells versus MS cells, read-out: Ratio IC50
HCT-116 [12] = experiment: Cytotoxicity against human HCT116 cells assessed as reduction in cell viability at 2 uM by MTT assay; format: functional, cell-based; conditions: TDE = time-dependent effect
HCT-116 [13] = experiment: Cell cycle arrest in human HCT116 cells assessed as accumulation at S phase at 2 uM after 18 hrs by DAPI staining-based flow cytometric analysis (RVB = 25.49%); format: functional
HCT-116 [14] = experiment: Induction of apoptosis in human HCT116 cells assessed as viable cells at 2 uM after 18 hrs by Annexin V/7-AAD staining based flow cytometric analysis (reference value: 91.42%); format: functional; conditions: HCT-116, 18 h, read-out: Activity
HCT-116 [15] = experiment: Induction of apoptosis in human HCT116 cells assessed as necrotic cells at 2 uM after 18 hrs by Annexin V/7-AAD staining based flow cytometric analysis (reference value: 0.62%); format: functional
HCT-116 [16] = experiment: Cell cycle arrest in human HCT116 cells assessed as accumulation at G2/M phase at 6 uM after 18 hrs by DAPI staining-based flow cytometric analysis (RVB = 17.25%); format: functional
HCT-116 [17] = experiment: Induction of apoptosis in human HCT116 cells assessed as decrease in viable cells after 18 hrs by Annexin V/7-AAD staining based flow cytometric analysis; format: functional, cell-based
HCT-116 [18] = experiment: Induction of mitochondrial membrane depolarization in human HCT116 cells at 3 uM after 18 hrs by Hoechst 33258 /rhodamine 123 staining based fluorescence inverted microscopic analysis; format: functional, cell-based
HCT-116 [19] = experiment: Induction of apoptosis in human HCT116 cells assessed as late apoptotic cells at 3 uM after 18 hrs by Annexin V/7-AAD staining based flow cytometric analysis (reference value: 2.12%); format: functional
HCT-116 [20] = experiment: Induction of apoptosis in human HCT116 cells assessed as early apoptotic cells at 3 uM after 18 hrs by Annexin V/7-AAD staining based flow cytometric analysis (reference value: 5.84%); format: functional
HCT-116 [21] = experiment: Induction of apoptosis in human HCT116 cells assessed as viable cells at 6 uM after 18 hrs by Annexin V/7-AAD staining based flow cytometric analysis (reference value: 91.42%); format: functional; conditions: HCT-116, 18 h, read-out: Activity
HCT-116 [22] = experiment: Cell cycle arrest in human HCT116 cells assessed as accumulation at sub-G0 phase at 6 uM after 18 hrs by DAPI staining-based flow cytometric analysis (RVB = 8.55%); format: functional
HCT-116 [23] = experiment: Cell cycle arrest in human HCT116 cells assessed as accumulation at S phase at 3 uM after 18 hrs by DAPI staining-based flow cytometric analysis (RVB = 25.49%); format: functional
HCT-116 [24] = experiment: Cell cycle arrest in human HCT116 cells assessed as accumulation at sub-G0 phase at 3 uM after 18 hrs by DAPI staining-based flow cytometric analysis (RVB = 8.55%); format: functional
HCT-116 [25] = experiment: Induction of apoptosis in human HCT116 cells assessed as increase in number of cells with condense nucleus at 3 uM after 18 hrs by Hoechst 33258 /rhodamine 123 staining based fluorescence inverted microscopic analysis; format: functional, cell-based
HCT-116 [26] = experiment: Cell cycle arrest in human HCT116 cells assessed as accumulation at G0/G1 phase at 3 uM after 18 hrs by DAPI staining-based flow cytometric analysis (RVB = 47.72%); format: functional
HCT-116 [27] = experiment: Induction of apoptosis in human HCT116 cells assessed as early apoptotic cells at 6 uM after 18 hrs by Annexin V/7-AAD staining based flow cytometric analysis (reference value: 5.84%); format: functional
HCT-116 [28] = experiment: Induction of apoptosis in human HCT116 cells assessed as necrotic cells at 3 uM after 18 hrs by Annexin V/7-AAD staining based flow cytometric analysis (reference value: 0.62%); format: functional
HEp-2 = experiment: Cytotoxicity against human Hep2 cells assessed as reduction in cell viability after 72 hrs by MTT assay; format: functional, cell-based; conditions: HEp-2, 72 h
HCT-116 [29] = experiment: Antimigratory activity in human HCT116 cells after 96 hrs by wound healing assay; format: functional, cell-based
HCT-116 [30] = experiment: Cell cycle arrest in human HCT116 cells assessed as decrease in accumulation at G0/G1 phase after 18 hrs by DAPI staining-based flow cytometric analysis; format: functional
HCT-116 [31] = experiment: Cell cycle arrest in human HCT116 cells assessed as accumulation at G2/M phase at 3 uM after 18 hrs by DAPI staining-based flow cytometric analysis (RVB = 17.25%); format: functional
HCT-116 [32] = experiment: Cytotoxicity against human HCT116 cells assessed as reduction in cell viability at 3 to 6 uM by MTT assay; format: functional, cell-based; conditions: TDE = time-dependent effect
HCT-116 [33] = experiment: Induction of apoptosis in human HCT116 cells assessed as increase in early apoptotic cells after 18 hrs by Annexin V/7-AAD staining based flow cytometric analysis; format: functional, cell-based
HCT-116 [34] = experiment: Induction of apoptosis in human HCT116 cells assessed as viable cells at 3 uM after 18 hrs by Annexin V/7-AAD staining based flow cytometric analysis (reference value: 91.42%); format: functional; conditions: HCT-116, 18 h, read-out: Activity
HCT-116 [35] = experiment: Induction of apoptosis in human HCT116 cells assessed as necrotic cells at 6 uM after 18 hrs by Annexin V/7-AAD staining based flow cytometric analysis (reference value: 0.62%); format: functional
HCT-116 [36] = experiment: Induction of apoptosis in human HCT116 cells assessed as late apoptotic cells at 6 uM after 18 hrs by Annexin V/7-AAD staining based flow cytometric analysis (reference value: 2.12%); format: functional
HCT-116 [37] = experiment: Cell cycle arrest in human HCT116 cells assessed as accumulation at G0/G1 phase at 6 uM after 18 hrs by DAPI staining-based flow cytometric analysis (RVB = 47.72%); format: functional
HCT-116 [38] = experiment: Cell cycle arrest in human HCT116 cells assessed as accumulation at S phase at 6 uM after 18 hrs by DAPI staining-based flow cytometric analysis (RVB = 25.49%); format: functional

`CC[C@@]1(O)C(=O)OCc2c1cc1n(c2=O)Cc2cc3ccccc3nc2-1` [CAMPTOTHECIN] showed an Activity (HCT-116 [1]) of 7.33%, a selectivity ratio [2] of 0.53 to 40.2 and an IC50 (HEK293) of 1.61 µM. For the same molecule, the Activity (HCT-116 [3]) was “Dose-dependent effect”, the IC50 (MCF7) was 0.04 µM and the IC50 [4] was 0.77 µM. It also gave an Activity (HCT-116 [5]) of 24.52%, an IC50 (A549) of 1.31 µM and an Activity (HCT-116 [6]) of 10.06%. For the same molecule, the Activity (HCT-116 [7]) was 27.71%, the IC50 (RD) was 1.72 µM and the selectivity ratio [8] was 0.53 to 40.2. For the same molecule, the Activity (HCT-116 [9]) was “Active”, the Activity (HCT-116 [10]) was 5.73% and the selectivity ratio [11] was 0.53 to 40.2. For the same molecule, the Activity (HCT-116 [12]) was “Tde”, the Activity (HCT-116 [13]) was 36.77% and the viability at 2 µM (HCT-116 [14]) was 81.9%. It also gave an Activity (HCT-116 [15]) of 5.08%.

For `C=C(C=O)[C@@H]1CC[C@]2(C(=O)OC)CC[C@]3(C)[C@H](CC[C@@H]4[C@@](C)(CC#N)[C@H](C(C)(C)C(=O)COC(C)=O)CC[C@]43C)[C@@H]12`, the Activity (HCT-116 [16]) was 15.27%, the Activity (HCT-116 [17]) was “Dose-dependent effect” and the Activity (HCT-116 [18]) was “Active”. It also gave a selectivity ratio [2] of 2.42 to 9.61, an Activity (HCT-116 [19]) of 11.99% and an IC50 (HEK293) of 29.5 µM. For the same molecule, the Activity (HCT-116 [3]) was “Dose-dependent effect”, the IC50 (HCT-116 [3]; HCT-116, 72 h) was 3.07 µM and the IC50 (MCF7) was 9.68 µM. For the same molecule, the Activity (HCT-116 [20]) was 14.06%, the IC50 [4] was 3.61 µM and the IC50 (A549) was 10.2 µM. The viability at 6 µM (HCT-116 [21]) was 58.5%, the Activity (HCT-116 [22]) was 38.29% and the Activity (HCT-116 [23]) was 28.16%. For the same molecule, the Activity (HCT-116 [24]) was 15.07%, the IC50 (RD) was 3.5 µM and the Activity (HCT-116 [25]) was “Active”. The Activity (HCT-116 [26]) was 35.65%, the selectivity ratio [8] was 2.42 to 9.61 and the Activity (HCT-116 [27]) was 27.07%. For the same molecule, the Activity (HCT-116 [28]) was 2.6%, the IC50 (HEp-2) was 12.2 µM and the Activity (HCT-116 [29]) was “Dose-dependent effect”. For the same molecule, the Activity (HCT-116 [30]) was “Dose-dependent effect”, the Activity (HCT-116 [31]) was 19.99% and the Activity (HCT-116 [32]) was “Tde”. The selectivity ratio [11] was 2.42 to 9.61, the Activity (HCT-116 [33]) was “Dose-dependent effect” and the viability at 3 µM (HCT-116 [34]) was 71.3%. For the same molecule, the Activity (HCT-116 [35]) was 3.21%, the Activity (HCT-116 [36]) was 11.2% and the Activity (HCT-116 [37]) was 21.49%. For the same molecule, the Activity (HCT-116 [38]) was 24.03%.
